# From patent US10899754B2, “Modulators of indoleamine 2,3-dioxygenase” (GLAXOSMITHKLINE INTELLECTUAL PROPERTY DEVELOPMENT LIMITED, priority 2016, dated 2021)
# Read-outs that look alike come from different tables or passages of the source.
# Assays:
# [1] = molecular target: indoleamine 2, 3-dioxygenase (IDO1) (Homo sapiens, UniProt P14902); test: IDO1 PBMC RapidFire MS assay (kynurenine detection by mass spectrometry); type: cell-based; parameters: to induce the expression of indoleamine 2, 3-dioxygenase (IDO1); host or cells: human PBMC stimulated with IFN-gamma and LPS; details: human PBMC stimulated with IFN-γ and LPS, 2 days, pIC50, read-out: PBMC PXC50 (converted)
# Chain of indoleamine 2, 3-dioxygenase (IDO1) (P14902 whole entry): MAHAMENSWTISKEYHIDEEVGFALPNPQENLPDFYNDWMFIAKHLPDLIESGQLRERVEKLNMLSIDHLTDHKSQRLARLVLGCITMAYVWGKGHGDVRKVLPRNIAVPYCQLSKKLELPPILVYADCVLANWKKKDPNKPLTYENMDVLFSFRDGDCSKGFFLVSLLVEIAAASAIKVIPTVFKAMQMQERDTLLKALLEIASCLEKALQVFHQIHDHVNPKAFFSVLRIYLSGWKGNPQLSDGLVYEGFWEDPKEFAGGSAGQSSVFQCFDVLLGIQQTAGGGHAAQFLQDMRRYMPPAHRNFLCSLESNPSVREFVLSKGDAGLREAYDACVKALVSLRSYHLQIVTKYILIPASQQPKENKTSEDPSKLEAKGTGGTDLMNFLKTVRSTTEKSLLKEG
# Outline: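 Kynurenine output, read by RapidFire mass spectrometry as ratio to an internal standard, was measured after 2-day compound exposure (11-point, 3-fold dilutions) of human PBMCs induced with 100 ng/ml IFN-γ and 50 ng/ml LPS. Cell viability tracked alongside via ATP luminescence; XC50 from curve fitting.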
# [2] = system: human peripheral blood mononuclear cells (PBMC); test: PBMC cytotoxicity assay (CellTiter-Glo); type: cell-based; details: 2 days, pCC50
# Outline: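 % cytotoxicity was taken from CellTiter-Glo luminescence, using wells without cells and stimulated DMSO wells as references, and fitted by four-parameter curve to give XC50. Cells were human PBMC at 50,000 per well, activated with 100 ng/ml IFN-γ plus 50 ng/ml LPS. Incubation with 11-point, 3-fold dilution series ran for 2 days at 37 °C.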
# [3] = Tolerability, body weight and hepatic functions in Beagle dogs, 7 day repeat oral administration; type: in vivo; details: Beagle dog, 20 mg/kg PO BID for 7 days
# Protocol: FIG. 1 is daily body weights of Beagle dogs during the study of example 23, 20 mg/kg PO BID dose.
# FIG. 2 is daily hepatic enzyme levels of Beagle dogs during the study: ALT (alanine aminotransferase), AST (aspartate aminotransferase), ALP (alkaline phosphatase) and T-Bil (total bilirubin) for example 23, 20 mg/kg PO BID dose.
# (§1) To understand its toxicokinetics and potential effect on hepatic functions, EXAMPLE 23 was orally dosed to Beagle dogs for 7 consecutive days.
# [4] = Toxicokinetics in Beagle dogs, 7 day repeat oral administration; type: in vivo; details: 20 mg/kg PO BID; for Therapeutic Index AUC (0-12 hr): versus predicted human efficacious AUC 0.376 μg * hr/mL; for Therapeutic Index Cmax: versus predicted human efficacious Cmax 0.078 μg/mL; for Cmax / AUC(0-t): Beagle, dog, po, 20 mg/kg; for Cmax / AUC(0-t) / Tmax: plasma; for AUC(0-t): Subject 1, read-out: AUC (0-12 hr)
# Text: as §1
structure (smiles),measurement,setting,value
"CC(C)CN(c1ccc([C@H](C)CC(=O)O)cc1Nc1nc(C(F)(F)F)ns1)C1CCOCC1 [Example 20, (R)-3-(4-(Isobutyl(tetrahydro-2H-pyran-4-yl)amino)-3-((3-(trifluoromethyl)-1,2,4-thiadiazol-5-yl)amino)phenyl)butanoic Acid]",IC50,[1],2.51 nM
same,PBMC TOX PXC50,[2],<5
"CC(C)CN(c1ccc([C@H](C)CC(=O)O)cc1Nc1nnc(C2CC2)s1)C1CCOCC1 [Example 23, (R)-3-(3-((5-cyclopropyl-1,3,4-thiadiazol-2-yl)amino)-4-(isobutyl (tetrahydro-2H-pyran-4-yl)amino)phenyl)butanoic Acid]",IC50,[1],3.16 nM
same,PBMC TOX PXC50,[2],<5
same,Clinical observations,[3],no clinical observations were made
same,Tolerability throughout the study,[3],well tolerated
same,"Hepatic functions measured by serum ALT, AST, ALP and T-Bil levels",[3]; FIG. 2,in the normal variable ranges
same,Body weights,"[3]; male and female, FIG. 1",constant
same,Therapeutic Index AUC (0-12 hr),"[4]; Beagle dog, Day1, Female",4
same,Therapeutic Index Cmax,"[4]; Beagle dog, Day1, Female",13
same,Therapeutic Index AUC (0-12 hr),"[4]; Beagle dog, Day1, Male",14
same,Therapeutic Index Cmax,"[4]; Beagle dog, Day1, Male",31
same,Therapeutic Index AUC (0-12 hr),"[4]; Beagle dog, Day7, Female",10
same,Therapeutic Index Cmax,"[4]; Beagle dog, Day7, Female",50
same,Therapeutic Index AUC (0-12 hr),"[4]; Beagle dog, Day7, Male",40
same,Therapeutic Index Cmax,"[4]; Beagle dog, Day7, Male",81
same,Therapeutic coverage in AUC0-12 for the predicted human efficacious dose,"[4]; Beagle dog, Day 7, average",~25 fold
same,Therapeutic coverage in Cmax for the predicted human efficacious dose,"[4]; Beagle dog, Day 7, average",~66 fold
same,Time quantifiable in plasma post the start of the oral dose,"[4]; Beagle dog, Days 1 and 7",up to 24 hours
same,Increase in systemic exposures (Cmax and AUC0-12 values) on Day 7 in comparison to Day 1,"[4]; Beagle dog, both dogs",~3 fold
same,Cmax,"[4]; female, Day1, Female, Subject 1",1000 ng/mL
same,AUC(0-t),"[4]; female, Day1, Female",1500 ng·h/mL
same,Cmax,"[4]; female, Day7, Female, Subject 1",3900 ng/mL
same,AUC(0-t),"[4]; female, Day7, Female",3800 ng·h/mL
same,Cmax,"[4]; male, Day1, Male, Subject 1",2400 ng/mL
same,AUC(0-t),"[4]; male, Day1, Male",5100 ng·h/mL
same,Cmax,"[4]; male, Day7, Male, Subject 1",6300 ng/mL
same,AUC(0-t),"[4]; male, Day7, Male",14900 ng·h/mL
same,Tmax,"[4]; Beagle dog, Day1, Male, Subject 1",30 min
same,Tmax,"[4]; Beagle dog, Day7, Female, Subject 1",30 min
same,Tmax,"[4]; Beagle dog, post dose on Days 1 and 7",30 min
